# Earlier results as cited in patent US20160199437A1, “THERAPEUTIC COMPOSITIONS INCLUDING IRON CHELATORS AND USES THEREOF” (priority 2015, published 2016).
# Test system: several mammalian cell types
# Conditions: energy-independent manner; cited from earlier work
substance,measurement,value
"2′,6′-Dmt-D-Arg-Phe-Lys-NH2",penetration of the plasma membrane,readily penetrates the plasma membrane
